Source: US20090170826A1, “Acid Addition Salt of Optically Active Dihydropyridine Derivative” (Daiichi Sankyo Company ,Limited, priority 2005, published 2009)

What was measured:
[1] = Thermal stability test (residual rate of compound (I) by HPLC); format: physicochemical
Procedure: The test compound was placed in a glass bottle and allowed to stand under the following conditions (1) and (2).
(1): Closed state, 60° C.;
The measurement conditions in high performance liquid chromatography are as follows.
Column: L-column ODS [4.6 mm×250 mm, manufactured by Chemicals Evaluation and Research Institute, Japan]
Column temperature: 40° C.
Detection wavelength: 220 nm
The residual rate (%) was calculated by the following formula.
The residual rate (%)=[1−(sum of peak area percentages of impurities and decomposed products)]×100

[2] = Absorbability test in dog; format: in vivo; conditions: fasted male beagle, ranitidine pretreated, oral 10 mg/body in 0.5% methyl cellulose, plasma; for AUC(0-t): read-out: AUC0-24 h
Procedure: Ranitidine (2.5 mg/kg) was intramuscularly injected to the posterior region of thigh of a fasted male beagle (body weight: about 10 kg, n=6) to make the intragastric pH acidic 30 minutes before, immediately before and 30 minutes after administration of the test compound. The test compound was suspended in a 0.5% methyl cellulose solution at a dose of 10 mg/body and orally administered. About 3 ml of blood was collected from the median antebrachial vein using a heparin-treated glass syringe 0.5, 1, 2, 3, 4, 6, 8 and 24 hours after the administration. The collected blood was centrifuged to obtain plasma which was cryopreserved at −20° C. until measurement of the concentration of the test compound. One hundred μl of thawed plasma was mixed with 300 μl of an internal standard solution [a methanol solution of the d3-compound (Ia), 5 ng/ml] and centrifuged. The supernatant was filtered through a filter and the filtrate was analyzed by LC/MS/MS.
A calibration curve was prepared by the same operation as above using each 100 μl of a calibration curve standard solution [a methanol solution of the compound (Ia), 0.5-400 ng/ml] which had been adjusted to respective concentrations in place of 100 μl of dog plasma.
The LC/MS/MS analysis conditions are shown below.
The area under the concentration in plasma-time curve (AUC0-24h) and the maximum concentration in plasma (Cmax) as pharmacokinetic parameters indicative of drug absorbability were calculated from the results obtained according to the aforementioned method using the compounds of Example 1, Example 2 (2C) and Comparative Example 4 as test compounds.

[3] = Condition (1): closed state, 60° C., 1 month
[4] = Condition (1): closed state, 60° C., 1 week
[5] = Condition (1): closed state, 60° C., 3 months
[6] = Condition (1): closed state, 60° C., time 0
[7] = Condition (2): non-closed state, 40° C., humidity 75%, 1 month
[8] = Condition (2): non-closed state, 40° C., humidity 75%, 1 week
[9] = Condition (2): non-closed state, 40° C., humidity 75%, time 0

Row | Compound | Residual rate of Compound (I) (%) [1, 3] [%] | Residual rate of Compound (I) (%) [1, 4] [%] | Residual rate of Compound (I) (%) [1, 5] [%] | Residual rate of Compound (I) (%) [1, 6] [%] | Residual rate of Compound (I) (%) [1, 7] [%] | Residual rate of Compound (I) (%) [1, 8] [%] | Residual rate of Compound (I) (%) [1, 9] [%] | Cmax [2] [ng/mL] | AUC(0-t) [2] [ng·h/mL] | also measured
1 | CC1=C(C(=O)OC(C)C)[C@@H](c2cccc([N+](=O)[O-])c2)C(C(=O)OC2CN(C(c3ccccc3)c3ccccc3)C2)=C(N)N1.CS(=O)(=O)O.CS(=O)(=O)O [Comparative Example 3, (R)-2-Amino-1,4-dihydro-6-methyl-4-(3-nitrophenyl)-3,5-pyridinedicarboxylic Acid 3-(1-diphenylmethylazetidin-3-yl) Ester 5-isopropyl Ester Dimethanesulfonate, reference compound] | 90.0 | 93.2 | 84.1 | 99.3 | 0.0 | 0.1 | 99.3 | – | – | –
2 | CC1=C(C(=O)OC(C)C)[C@@H](c2cccc([N+](=O)[O-])c2)C(C(=O)OC2CN(C(c3ccccc3)c3ccccc3)C2)=C(N)N1.Cl.Cl.O.O [Example 1, (R)-2-Amino-1,4-dihydro-6-methyl-4-(3-nitro-phenyl)-3,5-pyridinedicarboxylic Acid 3-(1-diphenylmethyl-azetidin-3-yl) Ester 5-isopropyl Ester Dihydrochloride dihydrate] | 95.3 | 96.6 | 92.0 | 99.4 | 96.0 | 97.8 | 99.4 | 168 | 1660 | Residual rate of Compound (I) (%) ([1]; Condition (2): non-closed state, 40° C., humidity 75%, 3 months): 94.1%
3 | Br.Br.CC1=C(C(=O)OC(C)C)[C@@H](c2cccc([N+](=O)[O-])c2)C(C(=O)OC2CN(C(c3ccccc3)c3ccccc3)C2)=C(N)N1.O.O [Example 2, (R)-2-Amino-1,4-dihydro-6-methyl-4-(3-nitro-phenyl)-3,5-pyridinedicarboxylic Acid 3-(1-diphenylmethyl-azetidin-3-yl) Ester 5-isopropyl Ester Dihydrobromide dihydrate] | 94.2 | – | – | 99.8 | 92.1 | 95.5 | 99.8 | 230 | 1930 | Residual rate of Compound (I) (%) ([1]; Condition (1): closed state, 60° C., 1 month, listed as Example 2A, Dihydrobromide dihydrate): 99.7%; Residual rate of Compound (I) (%) ([1]; Condition (1): closed state, 60° C., 1 week, listed as Example 2A, Dihydrobromide dihydrate): 99.8%; Residual rate of Compound (I) (%) ([1]; Condition (1): closed state, 60° C., 1 week, listed as Example 2C, Dihydrobromide dihydrate): 95.0%; Residual rate of Compound (I) (%) ([1]; Condition (1): closed state, 60° C., 3 months, listed as Example 2A, Dihydrobromide dihydrate): 99.7%; Residual rate of Compound (I) (%) ([1]; Condition (1): closed state, 60° C., 3 months, listed as Example 2C, Dihydrobromide dihydrate): 94.5%; Residual rate of Compound (I) (%) ([1]; Condition (1): closed state, 60° C., time 0, listed as Example 2C, Dihydrobromide dihydrate): 99.1%; Residual rate of Compound (I) (%) ([1]; Condition (2): non-closed state, 40° C., humidity 75%, 1 month, listed as Example 2A, Dihydrobromide dihydrate): 99.6%; Residual rate of Compound (I) (%) ([1]; Condition (2): non-closed state, 40° C., humidity 75%, 1 week, listed as Example 2A, Dihydrobromide dihydrate): 99.7%; Residual rate of Compound (I) (%) ([1]; Condition (2): non-closed state, 40° C., humidity 75%, 3 months, listed as Example 2A, Dihydrobromide dihydrate): 99.4%; Residual rate of Compound (I) (%) ([1]; Condition (2): non-closed state, 40° C., humidity 75%, 3 months, listed as Example 2C, Dihydrobromide dihydrate): 90.6%; Residual rate of Compound (I) (%) ([1]; Condition (2): non-closed state, 40° C., humidity 75%, time 0, listed as Example 2C, Dihydrobromide dihydrate): 99.1%
4 | (R)-2-Amino-1,4-dihydro-6-methyl-4-(3-nitrophenyl)-3,5-pyridinedicarboxylic acid 3-(1-diphenylmethylazetidin-3-yl) ester 5-isopropyl Ester Disulfate Dihydrate [Comparative Example 1, reference compound] | 0.4 | 68.0 | – | 99.3 | 84.4 | 96.8 | 99.3 | – | – | –
5 | CC1=C(C(=O)OC(C)C)[C@@H](c2cccc([N+](=O)[O-])c2)C(C(=O)OC2CN(C(c3ccccc3)c3ccccc3)C2)=C(N)N1.O=S(=O)(O)O [Comparative Example 2, (R)-2-Amino-1,4-dihydro-6-methyl-4-(3-nitrophenyl)-3,5-pyridinedicarboxylic Acid 3-(1-diphenylmethylazetidin-3-yl) Ester 5-isopropyl Ester Monosulfate, reference compound] | 24.3 | 25.0 | – | 93.1 | – | 8.9 | 93.1 | – | – | –
6 | CC1=C(C(=O)OC(C)C)[C@@H](c2cccc([N+](=O)[O-])c2)C(C(=O)OC2CN(C(c3ccccc3)c3ccccc3)C2)=C(N)N1 [Comparative Example 4, (R)-2-Amino-1,4-dihydro-6-methyl-4-(3-nitrophenyl)-3,5-pyridinedicarboxylic Acid 3-(1-diphenylmethylazetidin-3-yl) Ester 5-isopropyl Ester, reference compound] | – | – | – | – | – | – | – | 161 | 1500 | –
